Results filed as inconclusive are left out. Activity calls are given as the source filed them.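 Rule for the calls: active = platelet aggregation inhibition above 50% relative to unstimulated and buffer-only controls; inactive = the rest, inconclusive results apart.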

The text below walks through data of PubChem BioAssay AID652249 (Broad Institute, 2013).

The subject of this assay is human washed platelets, SFLLRN-induced aggregation, aggregometer. In words: inhibition of SFLLRN-induced platelet aggregation, late-stage follow-up, mechanism study for PDI inhibitor project, cell-based, aggregometer, single point, dry powder samples (AID 652249). As to conditions: at 30 µM; stronger effect = higher value.

Consider `O=C(Nc1ccccc1)C1(CCOc2ccccc2)CCN(Cc2ccc(O)c(Cl)c2)CC1`, for which the aggregation inhibition (transmittance) is 23% (inactive). As to `CCOC(=O)C1(CCOc2ccccc2)CCN(C(=O)c2ccc(O)c(Cl)c2)CC1`, the aggregation inhibition (transmittance) was 100%. As for `CCN(C)C(=O)C1(CCOc2ccccc2)CCN(Cc2ccc(O)c(Cl)c2)CC1`, the figure is 2% (inactive). For the compound `C/C1=C\C[C@H](OC(=O)c2ccc(O)cc2)/C(C)=C/[C@@H](O)C(C)(C)CCC1`, the aggregation inhibition (transmittance) was 100%. As for `CC(C)(C)OC(=O)C1(CCOc2ccccc2)CCN(Cc2ccc(O)c(Cl)c2)CC1`, the figure is 100%; as for `CCOC(=O)C1(CCOc2ccccc2)CCN(Cc2ccc(O)cc2)CC1`, 0% (inactive); as for `CCOC(=O)C1(CCOc2ccccc2)CCN(Cc2ccc(OC)c(Cl)c2)CC1`, 4% (inactive). Take `O=C(NC1CCCC1)C1(CCOc2ccccc2)CCN(Cc2ccc(O)c(Cl)c2)CC1`: the aggregation inhibition (transmittance) is 1% (inactive).

`C/C1=C\[C@@H](O)C(C)(C)CCCC2(C)OC2C[C@@H]1OC(=O)c1ccc(O)cc1` (stereo not given in full): the aggregation inhibition (transmittance) was 17% (inactive). Next, `CC(C)OC(=O)C1(CCOc2ccccc2)CCN(Cc2ccc(O)c(Cl)c2)CC1`: 97%.
